Reference: patent US20030104461A1, “Methods for detecting cells with numerical chromosomal abnormalities” (priority 2001, published 2003)
Like-named read-outs stand apart in the source and are kept apart here.

Assays:
human lymphocytes [1] = system: human lymphocytes
Procedure: Peripheral blood was collected in heparinized vacutainers from healthy male and female volunteers (<40 years of age). Approximate 10 ml of whole blood was dispensed into a Lymphoprep™ tube (Nycomed Pharma AS Diagnostic, Oslo, Norway) containing ˜10 ml of sterile phosphate buffered saline. Following centrifugation for 20 minutes at 2000 rpm, the lymphocyte population was isolated and washed (1X) in PBS. Stock cultures of isolated lymphocytes were established in Williams E medium supplemented with 10% fetal calf serum, 100 U/ml penicillin and 100 ug/ml streptomycin, 2 mM L-glutamine and 1.0% Phytohemmaglutanin-M form (all reagents from Gibco BRL Life Technologies, Inc., Grand Island, N.Y.). The stock cultures were maintained at 37° C. in 5% CO2 atmosphere for about 48 hours. The lymphocytes were treated with 0 to 100 μg/ml of the aneugen, Noscapine, (Sigma Chemicals), a known aneugen, for 24 hours at 37° C.
The Noscapine treated and untreated lymphocytes, were then centrifuged for 6 minutes at 1000 rpm, the supernatant was removed and the lymphocytes were resuspended in 5 ml of Phosphate Buffered Saline (PBS; GIBCO BRL). The lymphocytes were then centrifuged, the supernatant removed, and the cells resuspended in 0.5 ml of PBS. The cell suspension was pipetted thoroughly through a 9-inch Pasteur pipette (Kimble Glass Inc.) to ensure single cell suspension. While vortexing a tube containing −20° C. (70%) ethanol (about 4.5 ml volume), the cell suspension was added drop by drop. The ethanol solution was prepared by adding 30 ml of distilled water to 70 ml of 200 proof ethyl alcohol from Phamco Products. The cells were then stored at −20° C. in the ethanol for at least 24 hours.
The cells that were stored at −20° C. for at least 24 hours were stained with the H3-P antibody and Alexa Fluor as described above for the H3-P+Alexa (GREEN) stained cells. After the incubation of the cells for 30 minutes at 37° C. with the Alexa Fluor, 5 ml of PBS was added to the cells, the cells were centrifuged, the supernatant removed and the cell pellet resuspended in 1.0 ml of PI/RNase A stain (as described above). The cells were stored on ice until analyzed.
Exited instrument set up mode to acquisition mode. Acquisition for DNA analysis was started and 10,000 ungated cells were acquired. […] The FL2 voltage was optimized as needed per sample (i.e., to keep the G1 peak on 200 of FL2-A x-axis) for Aneuploidy and Polyploidy acquisition. 50,000 ungated cells were acquired from each sample. The data was saved in listmode format.
The presence of aneuploid and polyploid cells in the lymphocytes was determined as follows. CellQuest™ Software was opened, and PLOT and OPEN a dialog box from the tool bar for creating a dot plot. FILE was selected and a data file was opened. […] The dot plot was expanded to the width of the paper. A gate was set for the DNA distribution by starting slightly to the left of the cycling population then continuing to the far right region of the dot plot ending the gate at the 2nd Y axis. The extension of this gate to the 2nd Y-axis of the dot plot was to accommodate cells with greater than 4n DNA (see FIG. 1A). PLOT and OPEN a dialog box was chosen from the tool bar for creating a dot plot.
Using the interphase cells as a guide, the first gate was set over the mitotic cell area above the G0G1-S phase areas.

human lymphocytes [2] = test: Manual microscopic analysis of polyploid cells (polyploid index, Giemsa stained slides); format: cell-based; details: at each concentration of Noscapine; 1000 consecutive mitotic cells scored for 8n mitotic cells
Procedure: Human lymphocytes described above and treated or not with Noscapine as described above were subjected to manual analysis of numerical chromosomal abnormalities for comparison with the number of cells having numerical chromosomal abnormalities (i.e. polyploidy) obtained in Example 1. For manual analysis, samples of cells were centrifuged for 6 minutes at 1000 rpm. The supernatant was removed and the cell pellet was resuspended in 5 ml of 1% pre-warmed (37° C.) sodium citrate. The latter solution was prepared by mixing 1 g of […] (Sigma Chemicals) in 100 ml of distilled water. The cells were immediately centrifuged as described above. The supernatant was removed and the pellet was vigorously re-suspended in 5 ml of 4° C. fixative (3:1 methanol:acetic acid). The cells were then centrifuged as described above and the pellet resuspended in 5 ml of 4° C. fixative (3:1 methanol:acetic acid). The cells were then stored overnight at −20° C. or until slide preparation. The slides were prepared as follows. The cells were centrifuged as described above and the supernatant was then poured off. The pellet was re-suspended in about 2 ml of fresh fixative solution. […] The polyploid index was determined by systematically scoring 1000 consecutive mitotic cells for the frequency of 8n mitotic cells under low magnification (bright field).

[3] = stimulated human lymphocytes treated 24 hours at 37° C., flow cytometry

SMILES: CN[C@H]1CCc2cc(OC)c(OC)c(OC)c2-c2ccc(OC)c(=O)cc21 [Colcemid®, Colcemid]
- percent of hyperdiploid cells (mitotic cells with DNA content >4n but <8n) (human lymphocytes [1]): increased
- percent of hypodiploid cells (mitotic cells with DNA content >2n but <4n) (human lymphocytes [1]): increased
- percent of polyploid cells (mitotic cells with DNA content of 8N) (human lymphocytes [1]): high

SMILES: C=C1[C@@H](C)[C@H]2[C@H](Cc3ccccc3)NC(=O)[C@]23OC(=O)/C=C/[C@H](O)CCC[C@@H](C)C/C=C/[C@H]3[C@@H]1O [Cytochalasin B]
- percent of hyperdiploid cells (mitotic cells with DNA content >4n but <8n) (human lymphocytes [1]; [3]): minimal
- percent of hypodiploid cells (mitotic cells with DNA content >2n but <4n) (human lymphocytes [1]; [3]): high
- percent of polyploid cells (mitotic cells with DNA content of 8N) (human lymphocytes [1]; [3]): high

SMILES: COc1ccc2c(c1OC)C(=O)O[C@@H]2[C@H]1c2c(cc3c(c2OC)OCO3)CCN1C [Noscapine]
- number of polyploid cells counted manually compared with flow cytometric evaluation (human lymphocytes [2]): similar
